Measurements as given in patent US20180057507A1, “INHIBITORS OF DUAL LEUCINE ZIPPER (DLK) KINASE FOR THE TREATMENT OF DISEASE” (Board of Regents, The University of Texas System, priority 2016, published 2018).
pKd: −log10 of the molar value.

Biological target: T1, human DLK (Homo sapiens, UniProt Q12852)
T1 sequence (Q12852 1-859): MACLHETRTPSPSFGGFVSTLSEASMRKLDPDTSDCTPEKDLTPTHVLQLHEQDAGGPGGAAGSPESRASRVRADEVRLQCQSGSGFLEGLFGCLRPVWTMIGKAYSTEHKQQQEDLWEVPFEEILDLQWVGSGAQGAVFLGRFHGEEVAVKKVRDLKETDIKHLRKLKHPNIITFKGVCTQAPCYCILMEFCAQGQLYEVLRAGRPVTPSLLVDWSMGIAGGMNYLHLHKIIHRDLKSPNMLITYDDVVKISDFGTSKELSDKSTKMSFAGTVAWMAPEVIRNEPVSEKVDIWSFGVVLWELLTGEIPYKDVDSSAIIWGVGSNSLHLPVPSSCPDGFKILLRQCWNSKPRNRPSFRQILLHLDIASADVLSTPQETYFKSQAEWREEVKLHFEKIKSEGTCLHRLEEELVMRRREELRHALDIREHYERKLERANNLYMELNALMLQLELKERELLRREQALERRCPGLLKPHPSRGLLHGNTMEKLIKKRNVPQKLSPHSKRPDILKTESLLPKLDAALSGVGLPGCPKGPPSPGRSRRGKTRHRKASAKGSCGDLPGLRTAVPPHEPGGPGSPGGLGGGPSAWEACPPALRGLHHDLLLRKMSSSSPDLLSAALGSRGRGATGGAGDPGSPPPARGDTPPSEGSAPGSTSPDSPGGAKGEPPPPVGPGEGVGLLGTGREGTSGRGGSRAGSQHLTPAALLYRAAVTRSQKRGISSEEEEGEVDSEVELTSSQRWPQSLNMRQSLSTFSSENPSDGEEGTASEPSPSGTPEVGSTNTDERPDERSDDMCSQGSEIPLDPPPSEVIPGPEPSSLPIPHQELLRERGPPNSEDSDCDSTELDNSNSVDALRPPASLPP
Assay: DLK Kd Determinations (KINOMEscan KdELECT, DiscoveRx)
Design: full length of human DLK (amino acids 1-859); host or cells: transiently transfected HEK293 cells; unpurified extract
Conditions: fusion protein of full length human DLK (amino acids 1-859) and NFkB DNA binding domain; qPCR readout; duplicate
Procedure: The DLK dissociation constants (Kd) have been determined in the KINOMEscan KdELECT Service at DiscoveRx.
A fusion protein of full length of human DLK (amino acids 1-859) and the DNA binding domain of NFkB was expressed in transiently transfected HEK293 cells. From these HEK 293 cells, extracts were prepared in M-PER extraction buffer (Pierce) in the presence of Protease Inhibitor Cocktail Complete (Roche) and Phosphatase Inhibitor Cocktail Set II (Merck) per manufacturers' instructions. The DLK fusion protein was labeled with a chimeric double-stranded DNA tag containing the NFkB binding site (5′-GGGAATTCCC-3′) fused to an amplicon for qPCR readout, which was added directly to the expression extract (the final concentration of DNA-tag in the binding reaction is 0.1 nM).
Streptavidin-coated magnetic beads (Dynal M280) were treated with a biotinylated small molecule ligand for 30 minutes at room temperature to generate affinity resins the binding assays. The liganded beads were blocked with excess biotin and washed with blocking buffer (SeaBlock (Pierce), 1% BSA, 0.05% Tween 20, 1 mM DTT) to remove unbound ligand and to reduce nonspecific binding.
Extracts were used directly in binding assays without any enzyme purification steps at a ≧10,000-fold overall stock dilution (final DNA-tagged enzyme concentration <0.1 nM). Extracts were loaded with DNA-tag and diluted into the binding reaction in a two step process. First extracts were diluted 1:100 in 1× binding buffer (PBS/0.05% Tween 20/10 mM DTT/0.1% BSA/2 μg/ml sonicated salmon sperm DNA) containing 10 nM DNA-tag. This dilution was allowed to equilibrate at room temperature for 15 minutes and then subsequently diluted 1:100 in 1× binding buffer. Test compounds were prepared as 111× stocks in 100% DMSO. Kds were determined using an 11-point 3-fold compound dilution series with three DMSO control points. All compounds for Kd measurements are distributed by acoustic transfer (non-contact dispensing) in 100% DMSO. The compounds were then diluted directly into the assays such that the final concentration of DMSO was 0.9%. All reactions performed in polypropylene 384-well plates. Each was a final volume of 0.02 mL. Assays were incubated with shaking for 1 hour at room temperature. Then the beads were pelleted and washed with wash buffer (1×PBS, 0.05% Tween 20) to remove displaced kinase and test compound. The washed based were re-suspended in elution buffer (1×PBS, 0.05% Tween 20, 0.5 μM non-biotinylated affinity ligand) and incubated at room temperature with shaking for 30 minutes. The kinase concentration in the eluates was measured by qPCR. qPCR reactions were assembled by adding 2.5 μL of kinase eluate to 7.5 μL of qPCR master mix containing 0.15 μM amplicon primers and 0.15 μM amplicon probe. The qPCR protocol consisted of a 10 minute hot start at 95° C., followed by 35 cycles of 95° C. for 15 seconds, 60° C. for 1 minute.
Test compounds were prepared as 111× stocks in 100% DMSO. Kds were determined using an 11-point 3-fold compound dilution series with three DMSO control points. All compounds for Kd measurements are distributed by acoustic transfer (non-contact dispensing) in 100% DMSO. The compounds were then diluted directly into the assays such that the final concentration of DMSO was 0.9%. The Kds were determined using a compound top concentration of 30,000 nM. Kd measurements were performed in duplicate.
Binding constants (Kds) were calculated with a standard dose-response curve using the Hill equation: […]
The Hill Slope was set to −1. Curves were fitted using a non-linear least square fit with the Levenberg-Marquardt algorithm (Levenberg, K., A method for the solution of certain non-linear problems in least squares, Q. Appl. Math. 2, 164-168 (1944)). See also Fabian, M. A. et al. A small molecule-kinase interaction map for clinical kinase inhibitors. Nat. Biotechnol. […]

pKd | SMILES
7.02 | COCCN1C[C@@H]2[C@H](C1)[C@H]2n1cc(-c2cnc(N)c(OC(F)F)c2)nc1C(C)C [Example 113, 3-(difluoromethoxy)-5-(2-isopropyl-1-((1R,5S,6s)-3-(2-methoxyethyl)-3-azabicyclo[3.1.0]hexan-6-yl)-1H-imidazol-4-yl)pyridin-2-amine]
6.62 | Nc1ncc(-c2cn([C@H]3[C@@H]4CN(CC(F)(F)F)C[C@@H]43)c(CC(F)(F)F)n2)cc1C(F)(F)F [Example 124, 5-(2-(2,2,2-trifluoroethyl)-1-((1R,5S,6s)-3-(2,2,2-trifluoroethyl)-3-azabicyclo[3.1.0]hexan-6-yl)-1H-imidazol-4-yl)-3-(trifluoromethyl)pyridin-2-amine]
7.03 | CC(C)c1nc(-c2cnc(N)c(OC(F)(F)F)c2)cn1[C@H]1[C@@H]2CNC[C@@H]21 [Example 58, 5-(1-((1R,5S,6s)-3-azabicyclo[3.1.0]hexan-6-yl)-2-isopropyl-1H-imidazol-4-yl)-3-(trifluoromethoxy)pyridin-2-amine]
7.26 | Nc1ncc(-c2cn([C@H]3[C@@H]4CN(CCF)C[C@@H]43)c(C3CC3)n2)cc1OC(F)F [Example 106, 5-(2-cyclopropyl-1-((1R,5S,6s)-3-(2-fluoroethyl)-3-azabicyclo[3.1.0]hexan-6-yl)-1H-imidazol-4-yl)-3-(difluoromethoxy)pyridin-2-amine]
7.00 | Nc1ncc(-c2cn([C@H]3[C@@H]4CN(C5COC5)C[C@@H]43)c(CC(F)(F)F)n2)cc1C(F)(F)F [Example 52, 5-(1-((1R,5S,6s)-3-(oxetan-3-yl)-3-azabicyclo[3.1.0]hexan-6-yl)-2-(2,2,2-trifluoroethyl)-1H-imidazol-4-yl)-3-(trifluoromethyl)pyridin-2-amine]
6.74 | Nc1ncc(-c2cn([C@H]3[C@@H]4CN(C5COC5)C[C@@H]43)c(C3CCC3)n2)cc1OC(F)F [Example 57, 5-(2-cyclobutyl-1-((1R,5S,6s)-3-(oxetan-3-yl)-3-azabicyclo[3.1.0]hexan-6-yl)-1H-imidazol-4-yl)-3-(difluoromethoxy)pyridin-2-amine]
5.92 | Nc1ncc(-c2cn3c(n2)C(C2CC2)OCC3)cc1C(F)(F)F (stereo not drawn) [Example 49, 5-(8-cyclopropyl-5,6-dihydro-8H-imidazo[2,1-c][1,4]oxazin-2-yl)-3-(trifluoromethyl)pyridin-2-amine]
6.85 | Nc1ncc(-c2cn(CC3CC3)c([C@H]3[C@@H]4CN(C5COC5)C[C@@H]43)n2)cc1C(F)(F)F [Example 1, 5-(1-(cyclopropylmethyl)-2-((1R,5S,6r)-3-(oxetan-3-yl)-3-azabicyclo[3.1.0]hexan-6-yl)-1H-imidazol-4-yl)-3-(trifluoromethyl)pyridin-2-amine]
7.06 | Nc1ncc(-c2cn([C@H]3[C@@H]4CNC[C@@H]43)c(C3CC3)n2)cc1C(F)(F)F [Example 71, 5-(1-((1R,5S,6s)-3-azabicyclo[3.1.0]hexan-6-yl)-2-cyclopropyl-1H-imidazol-4-yl)-3-(trifluoromethyl)pyridin-2-amine]
7.01 | CC(=O)N1C[C@@H]2[C@H](C1)[C@H]2n1cc(-c2cnc(N)c(C(F)(F)F)c2)nc1CC(F)(F)F [Example 82, 1-((1R,5S,6s)-6-(4-(6-amino-5-(trifluoromethyl)pyridin-3-yl)-2-(2,2,2-trifluoroethyl)-1H-imidazol-1-yl)-3-azabicyclo[3.1.0]hexan-3-yl)ethan-1-one]
6.85 | Nc1ncc(-c2cn([C@H]3[C@@H]4CN(CC(F)(F)F)C[C@@H]43)c(C3CC3)n2)cc1OC(F)F [Example 108, 5-(2-cyclopropyl-1-((1R,5S,6s)-3-(2,2,2-trifluoroethyl)-3-azabicyclo[3.1.0]hexan-6-yl)-1H-imidazol-4-yl)-3-(difluoromethoxy)pyridin-2-amine]
7.18 | COCCN1C[C@@H]2[C@H](C1)[C@H]2n1cc(-c2cnc(N)c(OC(F)(F)F)c2)nc1CC1CC1 [Example 100, 5-(2-(cyclopropylmethyl)-1-((1R,5S,6s)-3-(2-methoxyethyl)-3-azabicyclo[3.1.0]hexan-6-yl)-1H-imidazol-4-yl)-3-(trifluoromethoxy)pyridin-2-amine]
